# Assay results taken from patent US8946266B2, “Substituted triazole and imidazole derivatives as gamma secretase modulators” (Janssen Pharmaceuticals, Inc., priority 2009, dated 2015).
# Like-named read-outs stand apart in the source and are kept apart here.
# Columns and labels:
# Aβ42 = experiment: γ-secretase-modulating activity, Method 2: Aβ42 Alphalisa in supernatant of SKNBE2 cells carrying APP 695-wild type (Table 3b); format: cell-based; conditions: overnight
# Method: (§1) Screening was carried out using SKNBE2 cells carrying the APP 695-wild type, grown in Dulbecco's Modified Eagle's Medium/Nutrient mixture F-12 (DMEM/NUT-mix F-12) (HAM) provided by Invitrogen (cat no. 10371-029) containing 5% Serum/Fe supplemented with 1% non-essential amino acids, 1-glutamine 2 mM, Hepes 15 mM, penicillin 50 U/ml (units/ml) en streptomycin 50 μg/ml. Cells were grown to near confluency.
# (§2) The screening was performed using a modification of the assay as described in Citron et al (1997) Nature Medicine 3: 67. Briefly, cells were plated in a 384-well plate at 10^4 cells/well in Ultraculture (Lonza, BE12-725F) supplemented with 1% glutamine (Invitrogen, 25030-024), 1% non-essential amino acid (NEAA), penicillin 50 U/ml en streptomycin 50 μg/ml in the presence of test compound at different test concentrations. The cell/compound mixture was incubated overnight at 37° C., 5% CO2. The next day the media were assayed by two sandwich immuno-assays, for Aβ42 and Aβtotal.
# (§3) Aβtotal and Aβ42 concentrations were quantified in the cell supernatant using the Aphalisa technology (Perkin Elmer). Alphalisa is a sandwich assay using biotinylated antibody attached to streptavidin coated donorbeads and antibody conjugated to acceptor beads. In the presence of antigen, the beads come into close proximity. The excitation of the donor beads provokes the release of singlet oxygen molecules that trigger a cascade of energy transfer in the acceptor beads, resulting in light emission. To quantify the amount of Aβ42 in the cell supernatant, monoclonal antibody specific to the C-terminus of Aβ42 (JRF/cAβ42/26) was coupled to the receptor beads and biotinylated antibody specific to the N-terminus of Aβ (JRF/AβN/25) was used to react with the donor beads. To quantify the amount of Aβ total in the cell supernatant, monoclonal antibody specific to the N-terminus of Aβ (JRF/AβN/25) was coupled to the receptor beads and biotinylated antibody specific to the mid region of Aβ (biotinylated 4G8) was used to react with the donor beads.
# To obtain the values reported in Table 3b, the data were calculated as percentage of the maximum amount of amyloid Beta 42 measured in the absence of the test compound.
# (§4) The sigmoidal dose response curves were analyzed using non-linear regression analysis with percentage of the control plotted against the log concentration of the compound. A 4-parameter equation was used to determine the IC50.
# (§5) The IC50 values are shown in Table 3b (Aβtot means Aβtotal).
# Aβtotal = experiment: γ-secretase-modulating activity, Method 2: Aβtotal Alphalisa in supernatant of SKNBE2 cells carrying APP 695-wild type (Table 3b); format: cell-based; conditions: overnight, read-out: IC50 Aβtot
# Method: as §1, §2, §3, §4, §5
Structure (SMILES),IC50 (Aβ42),IC50 (Aβtotal),IC50 (Aβ42; Homo sapiens),IC50 (Aβtotal; Homo sapiens)
COc1cc(-c2nc(Nc3cc(F)c(F)cc3C(F)(F)F)n(C)n2)ccc1-n1cnc(C)c1 [Compound 142],59 nM,> 10000 nM,,
COc1cc(-c2nc(C3(c4cc(C(F)(F)F)ccc4F)CC3)n(C)n2)ccc1-n1cnc(C)c1 [Compound 90],562 nM,8910 nM,,
COc1cc(-c2nc(N3CCOc4ccccc43)n(C)n2)ccc1-n1cnc(C)c1 [Compound 325],182 nM,> 10000 nM,,
COc1cc(-c2nc3n(n2)CCN(C(C)=O)C3c2ccccc2C(F)(F)F)ccc1-n1cnc(C)c1 (stereo not shown) [Compound 276],,,832 nM,> 10000 nM
COc1cc(-c2nc(Oc3cccc(C(F)(F)F)c3)n(C)n2)ccc1-n1cnc(C)c1 [Compound 246],269 nM,9770 nM,,
COc1cc(-c2nc(N(C)c3ccc(F)cc3C(F)(F)F)n(C)n2)ccc1-n1cnc(C)c1 [Compound 50],110 nM,> 10000 nM,,
COc1cc(F)ccc1Nc1nc(-c2ccc(-n3cnc(C)c3)c(OC)c2)nn1C [Compound 215],269 nM,> 10000 nM,,
COc1ccc(F)c(Nc2nc(-c3ccc(-n4cnc(C)c4)c(OC)c3)nn2C)c1 [Compound 195],95 nM,> 10000 nM,,
COc1cc(-c2nc(C(C)(C)O)n(C(C)c3ccc(F)cc3)n2)ccc1-n1cnc(C)c1 (racemic) [Compound 300],871 nM,> 10000 nM,,
COc1ccc(Nc2nc(-c3ccc(-n4cnc(C)c4)c(OC)c3)nn2C)c(F)c1 [Compound 197],135 nM,> 10000 nM,,
COc1cc(-c2nc(Nc3cc(F)cc(C(F)(F)F)c3)n(C)n2)ccc1-n1cnc(C)c1 [Compound 159],21 nM,> 10000 nM,,
COc1cc(-c2nc(Oc3ccccc3Cl)n(C)n2)ccc1-n1cnc(C)n1 [Compound 272],7590 nM,> 10000 nM,,
COc1ccc(Cl)cc1Nc1nc(-c2ccc(-n3cnc(C)c3)c(OC)c2)nn1C [Compound 192],41 nM,9550 nM,,
COc1cc(-c2nc3n(n2)CCOC3c2ccc(F)cc2C)ccc1-n1cnc(C)c1 (stereo not shown) [Compound 280],191 nM,> 10000 nM,,
COc1cc(-c2nc(Nc3ccc(F)cc3)n(C)n2)ccc1-n1cnc(C)c1 [Compound 106],132 nM,> 10000 nM,,
COc1cc(-c2nc(Nc3ccc(F)c(F)c3)n(C)n2)ccc1-n1cnc(C)c1 [Compound 112],129 nM,9120 nM,,
COc1cc(-c2nc(N3CCCC(c4ccccc4)C3)n(C)n2)ccc1-n1cnc(C)c1 (racemic) [Compound 78],50 nM,8510 nM,,
COc1cc(-c2nc3n(n2)CCCC32CCCCC2)ccc1-n1cnc(C)c1 [Compound 270],170 nM,> 10000 nM,,
COc1cccc(Nc2nc(-c3ccc(-n4cnc(C)c4)c(OC)c3)nn2C)c1 [Compound 186],78 nM,> 10000 nM,,

Structure (SMILES),IC50 (Aβ42),IC50 (Aβtotal),IC50 (Aβ42; Homo sapiens),IC50 (Aβtotal; Homo sapiens)
COc1cc(-c2nc3c(-c4ccccc4Cl)cccn3n2)ccc1-n1cnc(C)c1 [Compound 286],145 nM,10000 nM,,
COc1cc(-c2nc(Cc3ccc(F)cc3)n(C)n2)ccc1-n1cnc(C)c1 [Compound 22],479 nM,> 10000 nM,,
COc1cc(-c2nc(NC3CCCCC3)n(C)n2)ccc1-n1cnc(C)c1 [Compound 94],871 nM,> 10000 nM,,
COCCn1nc(-c2ccc(-n3cnc(C)c3)c(OC)c2)nc1Nc1cc(C(F)(F)F)ccc1F [Compound 209],52 nM,9550 nM,,
CCn1nc(-c2ccc(-n3cnc(C)c3)c(OC)c2)nc1Nc1cc(C(F)(F)F)ccc1F [Compound 135],26 nM,> 10000 nM,,
COc1cc(-c2nc(-c3ccccc3Cl)n(CC3CC3)n2)ccc1-n1cnc(C)c1 [Compound 85],309 nM,> 10000 nM,,
COc1cc(-c2nc3n(n2)CCC[C@@H]3c2cc(C(F)(F)F)ccc2C)ccc1-n1cnc(C)c1 [Compound 339],155 nM,> 10000 nM,,
CCOc1ccccc1Nc1nc(-c2ccc(-n3cnc(C)c3)c(OC)c2)nn1C [Compound 205],100 nM,> 10000 nM,,
COc1cc(-c2nc(Nc3cccc(Cl)c3OC)n(C)n2)ccc1-n1cnc(C)c1 [Compound 194],65 nM,> 10000 nM,,
COc1nc(-c2nc(C)n(C(C)c3ccc(F)cc3)n2)ccc1-n1cnc(C)c1 (racemic) [Compound 69],1260 nM,> 10000 nM,,
COc1cc(-c2nc(NC3CCCC(C(F)(F)F)C3)n(C)n2)ccc1-n1cnc(C)c1 (stereo not shown) [Compound 96],339 nM,> 10000 nM,,
COc1cc(-c2nc3n(n2)CCC[C@@H]3c2ccccc2Cl)ccc1-n1cnc(C)c1 [Compound 254],234 nM,> 10000 nM,,
COc1cc(-c2ncn(-c3cccc(C(F)(F)F)c3)n2)ccc1-n1cnc(C)c1 [Compound 65],2240 nM,> 10000 nM,,
COc1cc(-c2nc(Nc3cc(NC(C)=O)ccc3F)n(C)n2)ccc1-n1cnc(C)c1 [Compound 221],708 nM,> 10000 nM,,
COc1cc(-c2nc(NCc3ccccc3)n(C)n2)ccc1-n1cnc(C)c1 [Compound 245],646 nM,> 10000 nM,,
COc1cc(-c2nc(-c3ccc4ccccc4n3)n(C)n2)ccc1-n1cnc(C)c1 [Compound 326],3090 nM,> 10000 nM,,
COc1cc(-c2nc3n(n2)CCCC3c2ccc(C(F)(F)F)cc2)ccc1-n1cnc(C)c1 (stereo not shown) [Compound 268],141 nM,> 10000 nM,,
Cc1cn(-c2ccc(-c3nc(Nc4ccccc4C(F)(F)F)n(C)n3)cc2C#N)cn1 [Compound 321],182 nM,> 15000 nM,,
COc1cc(-c2nc(Nc3cc(Cl)ccc3C(F)(F)F)n(C)n2)ccc1-n1cnc(C)c1 [Compound 143],30 nM,> 10000 nM,,

Structure (SMILES),IC50 (Aβ42),IC50 (Aβtotal),IC50 (Aβ42; Homo sapiens),IC50 (Aβtotal; Homo sapiens)
COc1cc(-c2nc(N3CCc4ccccc4C3)n(C)n2)ccc1-n1cnc(C)c1 [Compound 81],224 nM,> 10000 nM,,
COc1cc(-c2nc3c(-c4ccccc4OC(F)(F)F)cccn3n2)ccc1-n1cnc(C)c1 [Compound 288],151 nM,> 10000 nM,,
COc1cc(-c2nc3c(-c4cccc(OC(F)(F)F)c4)cccn3n2)ccc1-n1cnc(C)c1 [Compound 287],355 nM,> 10000 nM,,
COc1cc(-c2nc(Nc3ccc(C(F)(F)F)cc3F)n(C)n2)ccc1-n1cnc(C)c1 [Compound 134],110 nM,> 10000 nM,,
COc1cc(-c2nc(-c3ccc(F)cc3)n(C)n2)ccc1-n1cnc(C)c1 [Compound 40],355 nM,> 10000 nM,,
CNc1nc(-c2ccc(-n3cnc(C)c3)c(OC)c2)nn1-c1cccc(C(F)(F)F)c1 [Compound 93],,,282 nM,> 10000 nM
COc1cc(-c2nc(Nc3cccc(F)c3OC)n(C)n2)ccc1-n1cnc(C)c1 [Compound 219],91 nM,> 10000 nM,,
COc1cc(-c2nc(Nc3ccccc3Cl)n(C)n2)ccc1-n1cnc(C)c1 [Compound 101],41 nM,> 10000 nM,,
COc1cc(-c2nc(Nc3cc(F)c(C(F)(F)F)cc3F)n(C)n2)ccc1-n1cnc(C)c1 [Compound 141],47 nM,> 10000 nM,,
COc1cc(-c2nc(Nc3ccc(C#N)cc3C(F)(F)F)n(C)n2)ccc1-n1cnc(C)c1 [Compound 230],302 nM,> 10000 nM,,
COc1cc(-c2nc(Nc3cc(C(F)(F)F)c(Cl)cc3F)n(C)n2)ccc1-n1cnc(C)c1 [Compound 212],17 nM,> 10000 nM,,
COc1cc(-c2nc(C(=O)Nc3cccc(C(F)(F)F)c3)n(C)n2)ccc1-n1cnc(C)c1 [Compound 329],3090 nM,851 nM,,
COc1cc(-c2nc(Nc3cc(C(F)(F)F)ccc3F)n(C)n2)ccc1-n1ccnc1 [Compound 359],,,95 nM,> 10000 nM
COc1cc(-c2nc(Nc3ccnc(C)c3)n(C)n2)ccc1-n1cnc(C)c1 [Compound 239],4470 nM,> 10000 nM,,
COc1cc(-c2nc(N3CCCC(c4ccccc4)C3)n(C(C)C)n2)ccc1-n1cnc(C)c1 (stereo not shown) [Compound 79],,,36 nM,6610 nM
COc1cc(-c2nc(Nc3cccnc3)n(C)n2)ccc1-n1cnc(C)c1 [Compound 237],3160 nM,> 10000 nM,,
COc1cc(-c2nc3n(n2)CCCc2ccccc2-3)ccc1-n1cnc(C)c1 [Compound 17],,,407 nM,> 10000 nM
COc1cc(-c2nc(Cc3ccc(F)cc3C(F)(F)F)n(C)n2)ccc1-n1cnc(C)c1 [Compound 46],138 nM,8510 nM,,
